Where two headings read alike, the source gives them in different places.
Key:
breast line MDA468 = test: In vitro cell culture growth assay (MTS), MDA468; format: cell-based; settings: Homo sapiens, 72 h, MDA468 cells, three days after drug treatment
In short: (§1)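 Cells were plated and, one day later, treated with inhibitors. Three days after treatment, viable cell density was measured by MTS dye conversion, read as absorbance at 490 nm. Effects are expressed as percent of control growth versus vehicle-treated cells on the same plate.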

PI3K [1] = target: T1, PI3K (Homo sapiens, UniProt P48736); test: Fluorescence polarization assay for PI3K; format: biochemical; settings: read-out: PI3 Kinase γ IC50
T1 construct: PI3 Kinase γ IC50; other: PI3 Kinase γ; other: PI3 Kinase γ isoform, fluorescence polarization
In short: (§2)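 PI3K was preincubated with compound (final DMSO 1%), and the reaction was started with PIP2/ATP substrate and run 30–60 min. It was stopped with a detector mix giving 10 nM red probe and 70 nM GST-GRP.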

PI3K [2] = target: T2, PI3K (Homo sapiens, UniProt P42336); test: Fluorescence polarization assay for PI3K; format: biochemical; settings: read-out: PI3 Kinase α IC50
T2 construct: PI3 Kinase α IC50; other: PI3 Kinase α; other: PI3 Kinase α isoform, fluorescence polarization
In short: as §2

PI3K [3] = target: T3, PI3K (Homo sapiens, UniProt O00329); test: Fluorescence polarization assay for PI3K; format: biochemical
T3 construct: PI3 Kinase δ IC50; other: PI3 Kinase δ; other: PI3 Kinase δ isoform, fluorescence polarization
T3 sequence (O00329 1-1044): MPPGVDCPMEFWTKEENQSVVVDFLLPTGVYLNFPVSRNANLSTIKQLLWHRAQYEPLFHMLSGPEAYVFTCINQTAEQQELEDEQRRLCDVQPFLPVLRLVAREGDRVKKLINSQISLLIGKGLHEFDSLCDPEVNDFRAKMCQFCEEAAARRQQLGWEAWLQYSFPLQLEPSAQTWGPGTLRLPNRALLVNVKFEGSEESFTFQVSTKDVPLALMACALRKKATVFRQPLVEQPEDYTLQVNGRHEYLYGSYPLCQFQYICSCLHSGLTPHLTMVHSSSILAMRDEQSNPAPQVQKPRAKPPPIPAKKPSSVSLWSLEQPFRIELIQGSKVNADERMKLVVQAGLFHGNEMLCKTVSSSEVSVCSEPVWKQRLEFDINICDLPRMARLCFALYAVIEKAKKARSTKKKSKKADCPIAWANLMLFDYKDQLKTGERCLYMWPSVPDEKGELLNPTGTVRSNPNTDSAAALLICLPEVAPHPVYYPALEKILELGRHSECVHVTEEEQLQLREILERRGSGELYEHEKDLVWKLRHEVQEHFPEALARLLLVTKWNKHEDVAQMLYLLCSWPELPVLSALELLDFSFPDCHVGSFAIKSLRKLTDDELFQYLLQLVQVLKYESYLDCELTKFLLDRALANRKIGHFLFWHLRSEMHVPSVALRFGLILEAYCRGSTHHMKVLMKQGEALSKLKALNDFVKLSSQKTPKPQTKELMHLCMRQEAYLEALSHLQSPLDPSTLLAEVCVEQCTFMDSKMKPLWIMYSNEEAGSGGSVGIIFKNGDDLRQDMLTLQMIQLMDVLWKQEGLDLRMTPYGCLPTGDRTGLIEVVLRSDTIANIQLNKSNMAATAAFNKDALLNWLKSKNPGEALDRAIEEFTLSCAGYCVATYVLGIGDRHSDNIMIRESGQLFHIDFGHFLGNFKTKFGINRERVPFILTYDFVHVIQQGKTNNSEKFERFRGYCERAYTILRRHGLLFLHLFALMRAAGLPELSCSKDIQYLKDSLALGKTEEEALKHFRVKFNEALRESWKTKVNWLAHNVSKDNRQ
In short: as §2

PI3K [4] = target: T4, PI3K (Homo sapiens, UniProt P42338); test: Fluorescence polarization assay for PI3K; format: biochemical
T4 construct: PI3 Kinase β IC50; other: PI3 Kinase β; other: PI3 Kinase β isoform, fluorescence polarization
In short: as §2

Human mTOR (FLAG-TOR) = target: T5, Human mTOR (FLAG-TOR) (Homo sapiens, UniProt P42345); test: Human mTOR kinase assay with purified enzyme, DELFIA format; format: biochemical
T5 construct: FLAG
In short: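 Purified FLAG-mTOR in HEPES pH 7.4 buffer with 10 mM MnCl2 was preincubated with inhibitor and reacted 2 h at room temperature with His6-S6K substrate, then stopped with EDTA/EGTA. Phospho-T389 S6K detected by DELFIA with Eu-labelled antibody (40 ng/mL) after plate capture; inhibition computed from signal.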

prostate line LNCap = test: In vitro cell culture growth assay (MTS), LNCap; format: cell-based; settings: Homo sapiens, LNCaP, 72 h, LNCap cells, three days after drug treatment
In short: as §1

[5] = system: acute lymphoblastic leukemia xenograft; settings: NOS/SCID xenograft mouse model; Teachey et al, Blood 2006; cited from earlier work
[6] = PI3 Kinase γ isoform, fluorescence polarization
[7] = PI3 Kinase α isoform, fluorescence polarization
[8] = PI3 Kinase δ isoform, fluorescence polarization
[9] = PI3 Kinase β isoform, fluorescence polarization
[10] = purified human mTOR enzyme, DELFIA format

T1 sequence (P48736 whole entry, canonical isoform): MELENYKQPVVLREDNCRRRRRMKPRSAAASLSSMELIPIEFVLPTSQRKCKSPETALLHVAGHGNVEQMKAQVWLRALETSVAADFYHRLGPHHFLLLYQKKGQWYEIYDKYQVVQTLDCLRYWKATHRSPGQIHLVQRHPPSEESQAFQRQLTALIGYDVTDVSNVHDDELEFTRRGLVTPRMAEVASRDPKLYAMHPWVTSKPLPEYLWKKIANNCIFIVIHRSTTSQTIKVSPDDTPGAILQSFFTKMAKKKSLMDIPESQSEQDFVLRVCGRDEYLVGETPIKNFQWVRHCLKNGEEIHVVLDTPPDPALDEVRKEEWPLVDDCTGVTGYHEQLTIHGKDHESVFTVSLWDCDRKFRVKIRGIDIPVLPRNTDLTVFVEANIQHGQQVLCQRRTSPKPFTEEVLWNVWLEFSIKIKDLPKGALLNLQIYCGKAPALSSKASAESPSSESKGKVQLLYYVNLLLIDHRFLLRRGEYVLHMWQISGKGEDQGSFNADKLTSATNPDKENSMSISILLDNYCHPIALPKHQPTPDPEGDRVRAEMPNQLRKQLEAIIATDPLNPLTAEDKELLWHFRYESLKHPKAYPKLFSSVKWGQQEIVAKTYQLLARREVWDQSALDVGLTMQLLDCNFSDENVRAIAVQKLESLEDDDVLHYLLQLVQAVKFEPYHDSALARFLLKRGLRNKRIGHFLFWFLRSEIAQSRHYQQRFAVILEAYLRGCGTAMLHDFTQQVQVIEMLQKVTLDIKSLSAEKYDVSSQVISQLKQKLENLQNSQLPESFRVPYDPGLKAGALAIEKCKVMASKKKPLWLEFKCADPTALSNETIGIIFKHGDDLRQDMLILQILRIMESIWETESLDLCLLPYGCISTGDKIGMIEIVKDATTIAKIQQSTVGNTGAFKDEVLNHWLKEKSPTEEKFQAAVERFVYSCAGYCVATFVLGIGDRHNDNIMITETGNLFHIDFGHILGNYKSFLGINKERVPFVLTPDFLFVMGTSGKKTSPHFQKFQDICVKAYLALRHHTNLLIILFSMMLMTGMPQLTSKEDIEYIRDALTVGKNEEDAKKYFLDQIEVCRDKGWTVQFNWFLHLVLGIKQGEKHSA
T2 sequence (P42336 whole entry, canonical isoform): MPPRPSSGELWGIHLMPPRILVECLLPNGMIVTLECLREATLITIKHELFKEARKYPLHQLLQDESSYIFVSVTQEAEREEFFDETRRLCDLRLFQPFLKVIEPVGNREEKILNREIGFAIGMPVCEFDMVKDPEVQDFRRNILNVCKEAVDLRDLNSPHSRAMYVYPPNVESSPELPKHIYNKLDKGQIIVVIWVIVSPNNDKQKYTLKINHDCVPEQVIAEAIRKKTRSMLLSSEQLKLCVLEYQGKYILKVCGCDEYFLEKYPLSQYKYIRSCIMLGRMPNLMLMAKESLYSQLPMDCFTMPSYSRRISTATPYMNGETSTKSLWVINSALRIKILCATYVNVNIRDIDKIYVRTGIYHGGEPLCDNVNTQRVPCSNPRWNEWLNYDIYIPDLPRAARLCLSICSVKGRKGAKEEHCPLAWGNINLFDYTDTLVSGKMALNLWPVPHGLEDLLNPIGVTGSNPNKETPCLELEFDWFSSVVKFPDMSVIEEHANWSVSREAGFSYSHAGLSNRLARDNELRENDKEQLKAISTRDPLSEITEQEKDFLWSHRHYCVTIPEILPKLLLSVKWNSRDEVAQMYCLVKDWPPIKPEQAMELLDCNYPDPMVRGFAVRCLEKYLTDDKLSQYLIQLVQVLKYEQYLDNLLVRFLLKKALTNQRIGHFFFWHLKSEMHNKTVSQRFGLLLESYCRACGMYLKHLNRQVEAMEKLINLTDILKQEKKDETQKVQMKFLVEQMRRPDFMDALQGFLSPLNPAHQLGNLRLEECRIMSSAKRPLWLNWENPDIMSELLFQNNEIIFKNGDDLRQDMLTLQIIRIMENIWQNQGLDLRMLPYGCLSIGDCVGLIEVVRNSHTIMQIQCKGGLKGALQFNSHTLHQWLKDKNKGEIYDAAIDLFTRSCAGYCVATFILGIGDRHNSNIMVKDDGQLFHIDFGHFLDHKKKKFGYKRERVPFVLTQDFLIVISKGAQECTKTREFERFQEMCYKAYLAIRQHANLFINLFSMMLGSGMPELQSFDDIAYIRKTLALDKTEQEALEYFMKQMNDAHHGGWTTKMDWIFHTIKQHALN
T4 sequence (P42338 whole entry, canonical isoform): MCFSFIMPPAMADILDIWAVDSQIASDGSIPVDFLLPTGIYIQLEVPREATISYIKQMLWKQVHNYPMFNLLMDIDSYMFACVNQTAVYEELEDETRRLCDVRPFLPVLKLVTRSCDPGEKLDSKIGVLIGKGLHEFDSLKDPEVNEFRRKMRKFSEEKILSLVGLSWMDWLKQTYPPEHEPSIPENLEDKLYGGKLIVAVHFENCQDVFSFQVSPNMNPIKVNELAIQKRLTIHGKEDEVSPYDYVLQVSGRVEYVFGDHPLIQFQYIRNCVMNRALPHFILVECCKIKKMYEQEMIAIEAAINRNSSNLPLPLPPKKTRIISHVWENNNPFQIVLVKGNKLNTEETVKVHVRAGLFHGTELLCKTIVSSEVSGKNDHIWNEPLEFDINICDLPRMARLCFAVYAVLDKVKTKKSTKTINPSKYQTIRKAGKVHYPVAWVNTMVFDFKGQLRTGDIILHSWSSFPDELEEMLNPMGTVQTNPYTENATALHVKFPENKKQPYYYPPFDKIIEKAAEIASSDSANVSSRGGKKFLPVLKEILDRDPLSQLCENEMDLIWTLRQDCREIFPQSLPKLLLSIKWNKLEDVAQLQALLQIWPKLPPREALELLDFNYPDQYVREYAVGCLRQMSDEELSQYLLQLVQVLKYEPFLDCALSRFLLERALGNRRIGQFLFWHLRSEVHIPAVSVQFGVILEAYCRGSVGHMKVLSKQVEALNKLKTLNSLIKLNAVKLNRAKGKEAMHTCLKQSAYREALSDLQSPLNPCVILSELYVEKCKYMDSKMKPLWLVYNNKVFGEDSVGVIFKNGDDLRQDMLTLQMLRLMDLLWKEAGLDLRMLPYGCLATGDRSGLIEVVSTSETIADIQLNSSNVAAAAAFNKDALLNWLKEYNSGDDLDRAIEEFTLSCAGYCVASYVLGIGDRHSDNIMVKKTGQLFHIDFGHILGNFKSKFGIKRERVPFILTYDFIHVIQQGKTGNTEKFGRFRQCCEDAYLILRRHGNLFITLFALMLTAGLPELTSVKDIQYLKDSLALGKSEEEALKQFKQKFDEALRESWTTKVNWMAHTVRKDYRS

| IC50 (PI3K [1]; PI3 Kinase γ) | IC50 (PI3K [2]; PI3 Kinase α) | IC50 (PI3K [3]; PI3 Kinase δ) | IC50 (PI3K [4]; PI3 Kinase β) | IC50 (Human mTOR (FLAG-TOR)) | IC50 (prostate line LNCap) | IC50 (PI3K [1]; [6]) | IC50 (PI3K [2]; [7]) | IC50 (PI3K [3]; [8]) | IC50 (PI3K [4]; [9]) | IC50 (Human mTOR (FLAG-TOR); [10]) | Compound | IC50 (breast line MDA468) | activity in xenograft mouse model of acute lymphoblastic leukemia [5] |
| --- | --- | --- | --- | --- | --- | --- | --- | --- | --- | --- | --- | --- | --- |
| > 10000 nM | 1180 nM | 2380 nM | > 10000 nM | 0.21 nM |  |  |  |  |  |  | CNC(=O)Nc1ccc(-c2nc(N3CC4CCC(C3)O4)c3cnn(C4CCC5(CC4)OCCO5)c3n2)cc1 [Example 105, 1-(4-(4-(8-oxa-3-azabicyclo[3.2.1]octan-3-yl)-1-(1,4-dioxaspiro[4.5]decan-8-yl)-1H-pyrazolo[3,4-d]pyrimidin-6-yl)phenyl)-3-methylurea] | 26 nM |  |
| 12000 nM | 1050 nM | 12000 nM | > 10000 nM | 0.6 nM | 2.3 nM |  |  |  |  |  | O=C(Nc1ccc(-c2nc(N3CC4CCC(C3)O4)c3cnn(CC(F)(F)F)c3n2)cc1)OCCO [Example 110, 2-hydroxyethyl {4-[4-(8-oxa-3-azabicyclo[3.2.1]oct-3-yl)-1-(2,2,2-trifluoroethyl)-1H-pyrazolo[3,4-d]pyrimidin-6-yl]phenyl}carbamate] | 42 nM |  |
|  | 142 nM | 945 nM |  | 0.776 nM | 1 nM |  |  |  |  |  | CN1CCN(c2ccc(NC(=O)Nc3ccc(-c4nc(N5CC6CCC(C5)O6)c5cnn(CC(F)(F)F)c5n4)cc3)cc2)CC1 [Example 261, 1-[4-(4-methylpiperazin-1-yl)phenyl]-3-{4-[4-(8-oxa-3-azabicyclo[3.2.1]oct-3-yl)-1-(2,2,2-trifluoroethyl)-1H-pyrazolo[3,4-d]pyrimidin-6-yl]phenyl}urea] | 2 nM |  |
|  |  |  |  |  | 67 nM | 1070 nM | 4050 nM | 6820 nM | > 10000 nM | 1.87 nM | O=C(Nc1ccc(-c2nc(N3C[C@@H]4C[C@H]3CO4)c3cnn(CC(F)(F)F)c3n2)cc1)NC1CC1 [Example 296, 1-cyclopropyl-3-(4-{4-[(1S,4S)-2-oxa-5-azabicyclo[2.2.1]hept-5-yl]-1-(2,2,2-trifluoroethyl)-1H-pyrazolo[3,4-d]pyrimidin-6-yl}phenyl)urea] | 138 nM |  |
|  |  |  |  |  | 2 nM | 8020 nM | 3920 nM | 1740 nM | > 10000 nM | 0.3 nM | COC1CCC(n2ncc3c(N4CC5CCC(C4)O5)nc(-c4ccc(NC(=O)NC5CC5)cc4)nc32)CC1 (stereo not drawn) [Example 302, 1-cyclopropyl-3-{4-[1-(4-methoxycyclohexyl)-4-(8-oxa-3-azabicyclo[3.2.1]oct-3-yl)-1H-pyrazolo[3,4-d]pyrimidin-6-yl]phenyl}urea] | 7 nM |  |
|  |  |  |  |  | < 1 nM | 720 nM | 239 nM | 200 nM | 2840 nM | 0.265 nM | COC1CCC(n2ncc3c(N4CC5CCC(C4)O5)nc(-c4ccc(NC(=O)Nc5ccc(N6CCN(C)CC6)cc5)cc4)nc32)CC1 (stereo not drawn) [Example 304, 1-{4-[1-(4-methoxycyclohexyl)-4-(8-oxa-3-azabicyclo[3.2.1]oct-3-yl)-1H-pyrazolo[3,4-d]pyrimidin-6-yl]phenyl}-3-[4-(4-methylpiperazin-1-yl)phenyl]urea] | 1 nM |  |
|  |  |  |  |  | 200 nM | 1270 nM | 86 nM |  |  | 3.7 nM | CN1CCN(Cc2cc3nc(-c4ccc(NC(=O)Nc5ccncc5)cc4)nc(N4CC5CCC(C4)O5)c3s2)CC1 [Example 427, 1-(4-{6-[(4-methylpiperazin-1-yl)methyl]-4-(8-oxa-3-azabicyclo[3.2.1]oct-3-yl)thieno[3,2-d]pyrimidin-2-yl}phenyl)-3-pyridin-4-ylurea] | 390 nM |  |
|  |  |  |  |  | 240 nM | 815 nM | 34 nM |  |  | 1.5 nM | CN1CCN(Cc2cc3nc(-c4ccc(NC(=O)Nc5ccc(C(N)=O)cc5)cc4)nc(N4CC5CCC(C4)O5)c3s2)CC1 [Example 428, 4-{[(4-{6-[(4-methylpiperazin-1-yl)methyl]-4-(8-oxa-3-azabicyclo[3.2.1]oct-3-yl)thieno[3,2-d]pyrimidin-2-yl}phenyl)carbamoyl]amino}benzamide] | 110 nM |  |
|  |  |  |  |  | 120 nM | 3710 nM | 46 nM |  |  | 1.41 nM | CNC(=O)Nc1ccc(-c2nc(N3CC4CCC(C3)O4)c3sc(CN4CCN(S(C)(=O)=O)CC4)cc3n2)cc1 [Example 429, 1-methyl-3-{4-[6-{[4-(methylsulfonyl)piperazin-1-yl]methyl}-4-(8-oxa-3-azabicyclo[3.2.1]oct-3-yl)thieno[3,2-d]pyrimidin-2-yl]phenyl}urea] | 90 nM |  |
|  |  |  |  |  | 36 nM | 1630 nM | 113 nM |  |  | 1.29 nM | CCNC(=O)Nc1ccc(-c2nc(N3CC4CCC(C3)O4)c3sc(CN4CCN(S(C)(=O)=O)CC4)cc3n2)cc1 [Example 430, 1-ethyl-3-{4-[6-{[4-(methylsulfonyl)piperazin-1-yl]methyl}-4-(8-oxa-3-azabicyclo[3.2.1]oct-3-yl)thieno[3,2-d]pyrimidin-2-yl]phenyl}urea] | 90 nM |  |
|  |  |  |  |  | 32 nM | 1530 nM | 179 nM |  |  | 1.01 nM | CS(=O)(=O)N1CCN(Cc2cc3nc(-c4ccc(NC(=O)NC5CC5)cc4)nc(N4CC5CCC(C4)O5)c3s2)CC1 [Example 431, 1-cyclopropyl-3-{4-[6-{[4-(methylsulfonyl)piperazin-1-yl]methyl}-4-(8-oxa-3-azabicyclo[3.2.1]oct-3-yl)thieno[3,2-d]pyrimidin-2-yl]phenyl}urea] | 200 nM |  |
|  |  |  |  |  | 4 nM | 522 nM | 6 nM |  |  | 1.3 nM | CS(=O)(=O)N1CCN(Cc2cc3nc(-c4ccc(NC(=O)Nc5ccccc5)cc4)nc(N4CC5CCC(C4)O5)c3s2)CC1 [Example 432, 1-{4-[6-{[4-(methylsulfonyl)piperazin-1-yl]methyl}-4-(8-oxa-3-azabicyclo[3.2.1]oct-3-yl)thieno[3,2-d]pyrimidin-2-yl]phenyl}-3-phenylurea] | 37 nM |  |
|  |  |  |  |  | 120 nM | 330 nM | 8 nM |  |  | 0.445 nM | CS(=O)(=O)N1CCN(Cc2cc3nc(-c4ccc(NC(=O)Nc5ccncc5)cc4)nc(N4CC5CCC(C4)O5)c3s2)CC1 [Example 434, 1-{4-[6-{[4-(methylsulfonyl)piperazin-1-yl]methyl}-4-(8-oxa-3-azabicyclo[3.2.1]oct-3-yl)thieno[3,2-d]pyrimidin-2-yl]phenyl}-3-pyridin-4-ylurea] | 180 nM |  |
|  |  |  |  |  |  |  |  |  |  |  | CO[C@H]1C[C@@H]2CC[C@@H](C)[C@@](O)(O2)C(=O)C(=O)N2CCCC[C@H]2C(=O)O[C@H]([C@H](C)C[C@@H]2CC[C@@H](OC(=O)C(C)(CO)CO)[C@H](OC)C2)CC(=O)[C@H](C)/C=C(\C)[C@@H](O)[C@@H](OC)C(=O)[C@H](C)C[C@H](C)/C=C/C=C/C=C/1C [Torisel] |  | active |

Reference: patent US8129371B2, “Thienopyrimidine and pyrazolopyrimidine compounds and their use as mTOR kinase and PI3 kinase inhibitors” (Wyeth LLC, priority 2007, dated 2012)
